Consider six compounds from patent US20260176290A1, “INHIBITORS OF KRAS(G12D)” (Ranok Therapeutics (Hangzhou) Co. Ltd., priority 2022, published 2026).

T1 sequence (P01116 1-188 isoform P01116-2 G12D): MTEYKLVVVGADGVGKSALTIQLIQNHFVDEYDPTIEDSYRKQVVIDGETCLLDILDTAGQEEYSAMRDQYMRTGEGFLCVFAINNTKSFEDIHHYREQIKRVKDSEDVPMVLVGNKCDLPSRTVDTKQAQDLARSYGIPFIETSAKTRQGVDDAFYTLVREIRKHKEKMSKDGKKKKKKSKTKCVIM

The first assay has as its system ASPC1 pancreatic adenocarcinoma cells [homozygous G12D]. Description: Cancer cell line proliferation (CellTiter-Glo), ASPC1. Format: cell-based. The following applies: Homo sapiens, ASPC-1 cells, 72 hr, read-out: CTG(IC50), ABS-72 H(nM) ASPC-1. As to the method:
(§1) The following cancer cell lines were employed: AGS gastric carcinoma [heterozygous G12D] (ATCC, CRL-1739); A-427 lung carcinoma [heterozygous G12D] (ATCC, HTB-53); ASPC1 pancreatic adenocarcinoma [homozygous G12D] (ATCC, CRL-1682) and SW1990 pancreatic adenocarcinoma [homozygous G12D] (ATCC CRL-2172). Cell lines were cultured essentially according to ATCC recommendations.
(§2) AGS, A-427, ASPC1, SW1990, and GP2D cells were plated in 96-well tissue culture plates at 4,000 cells/well and incubated at 37° C./5% CO2 for 72 hr in 100 μl of media. 3-fold serial dilutions of each test compound were prepared ranging from 20 μM to 1.02 nM. Each cell line was then treated with test compounds at various concentrations with a final concentration of 0.5% DMSO/well, and then incubated at 37° C./5% CO2 for 72 hr. 100 μl of CellTiter-Glo® Reagent (Promega Corporation, Madison, WI) was added to each well and processed according manufacturer's protocol. Results were analyzed and IC50 5 values were calculated in GraphPad 7 software.
A general note: Cellular ATP, detected with luciferase, serves as a proxy for viable cell number.
For `C#Cc1c(F)ccc2cc(O)cc(-c3ncc4c(N5CC6CCC(C5)N6)nc(OCC5(CN6CCC(S(=O)(=O)N(C)C)CC6)CC5)nc4c3F)c12` [Example 25], the concentration for half-maximal inhibition (IC50) fell in the range of 100 to 1000 nM.

Regarding `C#Cc1c(F)ccc2cc(O)cc(-c3nc(N)c4c(N5CC6CCC(C5)N6)nc(OCC5(CN6CCC(F)CC6)CC5)nc4c3F)c12` [Example 46], the 50% inhibitory concentration (IC50) lay in the range of 100 to 1000 nM.

Regarding `C#Cc1c(F)ccc2cc(O)cc(-c3ncc4c(N5CC6CCC(C5)N6)nc(OCC5(CN6CCC(OC)CC6)CC5)nc4c3F)c12` [Example 12], the IC50 lay within 100 to 1000 nM.

For `C#Cc1c(F)ccc2cc(O)cc(-c3nc(N(C)C)c4c(N5CC6CCC(C5)N6)nc(OCC5(CN6CCC(F)CC6)CC5)nc4c3F)c12` [Example 23], the IC50 is > 1000 nM.

For the compound `C#Cc1c(F)ccc2cc(O)cc(-c3nc(OC(F)F)c4c(N5CC6CCC(C5)N6)nc(OCC5(CN6CCC(C(F)(F)F)CC6)CC5)nc4c3F)c12` [Example 32], the half-maximal inhibitory concentration (IC50) was 100 to 1000 nM.

Consider `C#Cc1c(F)ccc2cc(O)cc(-c3ncc4c(N5CC6CCC(C5)N6)nc(OCC5(CN6CCCC(F)(F)C6)CC5)nc4c3F)c12` [Example 9], for which the concentration for half-maximal inhibition (IC50) lay in the range of 100 to 1000 nM.

For another assay, the system named is AGS gastric carcinoma cells [heterozygous G12D]. In words: Cancer cell line proliferation (CellTiter-Glo), AGS. Type of assay: cell-based. As to conditions: Homo sapiens, 72 hr, read-out: CTG(IC50), ABS-72 H(nM) AGS. As to the method:
as §1, §2
Take `C#Cc1c(F)ccc2cc(O)cc(-c3ncc4c(N5CC6CCC(C5)N6)nc(OCC5(CN6CCC(S(=O)(=O)N(C)C)CC6)CC5)nc4c3F)c12` [Example 25]: the IC50 is < 100 nM.

`C#Cc1c(F)ccc2cc(O)cc(-c3nc(N)c4c(N5CC6CCC(C5)N6)nc(OCC5(CN6CCC(F)CC6)CC5)nc4c3F)c12` [Example 46]: the IC50 is < 100 nM.

Consider `C#Cc1c(F)ccc2cc(O)cc(-c3ncc4c(N5CC6CCC(C5)N6)nc(OCC5(CN6CCC(OC)CC6)CC5)nc4c3F)c12` [Example 12], for which the half-maximal inhibitory concentration (IC50) is < 100 nM.

For `C#Cc1c(F)ccc2cc(O)cc(-c3nc(N(C)C)c4c(N5CC6CCC(C5)N6)nc(OCC5(CN6CCC(F)CC6)CC5)nc4c3F)c12` [Example 23], the IC50 was > 1000 nM.

Turning to `C#Cc1c(F)ccc2cc(O)cc(-c3nc(OC(F)F)c4c(N5CC6CCC(C5)N6)nc(OCC5(CN6CCC(C(F)(F)F)CC6)CC5)nc4c3F)c12` [Example 32], the half-inhibitory concentration (IC50) was < 100 nM.

For the compound `C#Cc1c(F)ccc2cc(O)cc(-c3ncc4c(N5CC6CCC(C5)N6)nc(OCC5(CN6CCCC(F)(F)C6)CC5)nc4c3F)c12` [Example 9], the IC50 was < 100 nM.

Another assay deals with SW1990 pancreatic adenocarcinoma cells [homozygous G12D]. In words: Cancer cell line proliferation (CellTiter-Glo), SW1990. As to conditions: Homo sapiens, 72 hr, read-out: CTG(IC50), ABS-72 H(nM) SW1990. Format: cell-based. The method, then:
as §1, §2
With `C#Cc1c(F)ccc2cc(O)cc(-c3ncc4c(N5CC6CCC(C5)N6)nc(OCC5(CN6CCC(S(=O)(=O)N(C)C)CC6)CC5)nc4c3F)c12` [Example 25], the IC50 is 100 to 1000 nM.

With `C#Cc1c(F)ccc2cc(O)cc(-c3nc(N)c4c(N5CC6CCC(C5)N6)nc(OCC5(CN6CCC(F)CC6)CC5)nc4c3F)c12` [Example 46], the IC50 was < 100 nM.

As for `C#Cc1c(F)ccc2cc(O)cc(-c3nc(N(C)C)c4c(N5CC6CCC(C5)N6)nc(OCC5(CN6CCC(F)CC6)CC5)nc4c3F)c12` [Example 23], the IC50 is > 1000 nM.

Regarding `C#Cc1c(F)ccc2cc(O)cc(-c3nc(OC(F)F)c4c(N5CC6CCC(C5)N6)nc(OCC5(CN6CCC(C(F)(F)F)CC6)CC5)nc4c3F)c12` [Example 32], the half-maximal inhibitory concentration (IC50) was < 100 nM.

Another assay deals with A-427 lung carcinoma cells [heterozygous G12D]. In words: Cancer cell line proliferation (CellTiter-Glo), A-427. Format: cell-based. As to conditions: Homo sapiens, A427 cells, 72 hr, read-out: CTG(IC50), ABS-72 H(nM) A427. The method, then: as §1, §2
Take `C#Cc1c(F)ccc2cc(O)cc(-c3ncc4c(N5CC6CCC(C5)N6)nc(OCC5(CN6CCC(S(=O)(=O)N(C)C)CC6)CC5)nc4c3F)c12` [Example 25]: the concentration for half-maximal inhibition (IC50) is > 1000 nM.

For `C#Cc1c(F)ccc2cc(O)cc(-c3ncc4c(N5CC6CCC(C5)N6)nc(OCC5(CN6CCC(OC)CC6)CC5)nc4c3F)c12` [Example 12], the IC50 is 100 to 1000 nM.

`C#Cc1c(F)ccc2cc(O)cc(-c3nc(N(C)C)c4c(N5CC6CCC(C5)N6)nc(OCC5(CN6CCC(F)CC6)CC5)nc4c3F)c12` [Example 23]: the half-inhibitory concentration (IC50) is > 1000 nM.

Take `C#Cc1c(F)ccc2cc(O)cc(-c3nc(OC(F)F)c4c(N5CC6CCC(C5)N6)nc(OCC5(CN6CCC(C(F)(F)F)CC6)CC5)nc4c3F)c12` [Example 32]: the IC50 lay within 100 to 1000 nM.

Take `C#Cc1c(F)ccc2cc(O)cc(-c3ncc4c(N5CC6CCC(C5)N6)nc(OCC5(CN6CCCC(F)(F)C6)CC5)nc4c3F)c12` [Example 9]: the half-inhibitory concentration (IC50) lay in the range of 100 to 1000 nM.

The next assay addresses T1, KRAS (G12D)/SOS1 (Homo sapiens, UniProt P01116, G12D).
T1 construct: purchased Cisbio 63ADK000CB17PEH
Description: KRAS (G12D)/SOS1 homogeneous time-resolved fluorescence (HTRF) assay. The following applies: absence of GTP, 4° C. for 3 hr. Format: binding. The method, then:
3-fold serial dilutions of each test compound were prepared ranging from 20 μM to 1.02 nM. The test compound was mixed and incubated with reaction components, incubated in a sealed plate at 4° C. for 3 hr and fluorescence was measured using a PerkinElmer Envision plate reader. […]
On to `C#Cc1c(F)ccc2cc(O)cc(-c3ncc4c(N5CC6CCC(C5)N6)nc(OCC5(CN6CCC(S(=O)(=O)N(C)C)CC6)CC5)nc4c3F)c12` [Example 25], for which the half-inhibitory concentration (IC50) was < 100 nM.

Take `C#Cc1c(F)ccc2cc(O)cc(-c3nc(N)c4c(N5CC6CCC(C5)N6)nc(OCC5(CN6CCC(F)CC6)CC5)nc4c3F)c12` [Example 46]: the concentration for half-maximal inhibition (IC50) is < 100 nM.

For `C#Cc1c(F)ccc2cc(O)cc(-c3ncc4c(N5CC6CCC(C5)N6)nc(OCC5(CN6CCC(OC)CC6)CC5)nc4c3F)c12` [Example 12], the IC50 was < 100 nM.

As for `C#Cc1c(F)ccc2cc(O)cc(-c3nc(N(C)C)c4c(N5CC6CCC(C5)N6)nc(OCC5(CN6CCC(F)CC6)CC5)nc4c3F)c12` [Example 23], the IC50 fell in the range of 100 to 1000 nM.

For `C#Cc1c(F)ccc2cc(O)cc(-c3nc(OC(F)F)c4c(N5CC6CCC(C5)N6)nc(OCC5(CN6CCC(C(F)(F)F)CC6)CC5)nc4c3F)c12` [Example 32], the half-maximal inhibitory concentration (IC50) is < 100 nM.

Regarding `C#Cc1c(F)ccc2cc(O)cc(-c3ncc4c(N5CC6CCC(C5)N6)nc(OCC5(CN6CCCC(F)(F)C6)CC5)nc4c3F)c12` [Example 9], the concentration for half-maximal inhibition (IC50) is < 100 nM.

The IC50 is the midpoint of a concentration-inhibition curve.
